This note sets out measurements from patent US8420810B2, “Bicyclic heterocyclic compound” (Ono Pharmaceutical, Co., Ltd., priority 2007, dated 2013).

Each structure is given as a SMILES string.

Data set [1] is described as follows: Stability test under acidic condition. The class given is physicochemical. The note with it: ethanol solution / Pharmacopoeia first liquid 1 to 1, 37° C., 24 hours, HPLC. The protocol: A 1 mg/ml ethanol solution of an evaluation compound and the test liquid first liquid of the disintegration test of The Pharmacopoeia of Japan (to be referred to as Pharmacopoeia first liquid hereinafter) were mixed at a ratio of 1 to 1 (0.5 ml for each) and stirred at 37° C. for 24 hours. Amount of the evaluation compound at 0 minute or after 24 hours was determined by an HPLC apparatus. Survival rate (%) of the evaluation compound was calculated by the following formula. Survival rate of evaluation compound (%)=amount of evaluation compound after 24 hours of treatment with Pharmacopoeia first liquid/amount of evaluation compound just after treatment with Pharmacopoeia first liquid×100 <HPLC Conditions> • Apparatus: A 1200 series (manufactured by Agilent Technologies, Inc.), • Column: YMC-Pack C4, A-802, 150×4.6 mm I.D., S-5 μm, 120 A (manufactured by YMC), • Mobile phase: A: water, B: acetonitrile, A/B: 35/65, • Column temperature: room temperature, • Flow rate: 1.0 mL/min.

The next data set in a line: Light stability test. The class given is physicochemical. Particulars: 2500 Lux (D65 lamp), 25° C., HPLC. The protocol:
After weighing 5 mg of an evaluation compound, it was put into a test tube made of glass which was then sealed with a stop cock. Said test tube was stored at 25° C. for 11 days or 20 days under irradiation of 2500 Lux (a D65 lamp was used as the light source). The evaluation compound after 11 days or 20 days of irradiation was determined by an HPLC apparatus. Survival rate (%) of the evaluation compound was calculated by the following formula. Survival rate of evaluation compound (%)=amount of evaluation compound after 11 days or 20 days of irradiation (mg)/weighed value of evaluation compound (mg)×100 <HPLC Conditions> • Apparatus: A 1200 series (manufactured by Agilent Technologies, Inc.), • Column: YMC-Pack C4, A-802, 150×4.6 mm I.D., S-5 μm, 120 A (manufactured by YMC), • Mobile phase: A: water, B: acetonitrile, A/B: 35/65, • Column temperature: room temperature, • Flow rate: 1.0 mL/min.

Data set [2] has as its target T1, human CRF receptor I (Homo sapiens, UniProt P34998).
T1 construct: expressed in transfected cells; host or cells: CHO-K1
T1 sequence (P34998 24-415): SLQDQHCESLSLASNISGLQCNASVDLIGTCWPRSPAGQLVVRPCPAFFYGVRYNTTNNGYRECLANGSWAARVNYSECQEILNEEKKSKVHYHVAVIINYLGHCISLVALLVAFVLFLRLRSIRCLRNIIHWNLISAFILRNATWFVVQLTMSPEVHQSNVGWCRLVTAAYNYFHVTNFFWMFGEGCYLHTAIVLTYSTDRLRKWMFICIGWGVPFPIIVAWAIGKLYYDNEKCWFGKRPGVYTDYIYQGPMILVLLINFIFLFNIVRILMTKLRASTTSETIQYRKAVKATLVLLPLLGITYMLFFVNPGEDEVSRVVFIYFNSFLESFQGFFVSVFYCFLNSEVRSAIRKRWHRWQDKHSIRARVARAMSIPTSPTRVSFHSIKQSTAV
Kind of data set: Binding assay (125I-CRF, membrane fraction). The note with it: 125I-CRF 0.25 nM, membrane fraction of CHO-K1 cells expressing human CRF receptor I, room temperature 2 hours. As for the experimental part:
The forced-expression cell strain of the human CRF receptor I (parent strain is CHO-K1 cell) was cultured until the cell was confluent and collected with a scraper. The collected cells were washed twice with PBS, and were suspended with an ice-colded binding assay buffer (Tris-HCl (50 mM, pH 7.0), EDTA (2 mM, pH 8.0), and MgCl2 (10 mM)). After fractured with a dounce-type homogenizer, the suspended cells were centrifuged at 10,000 g, and a membrane fraction was collected. The collected membrane fraction was resuspended with a little amount of the binding assay buffer, thereafter diluted with the binding assay buffer so as to have a concentration of 1 mg/mL. The obtained membrane fraction was used for a binding assay.
^125I-CRF was diluted with the binding assay buffer so as to have a concentration of 0.5 nM, whereby 50 μL of the diluted ^125I-CRF was added to a siliconized 1.5 mL tube. Next, evaluation compounds diluted at appropriate times, DMSO (for general binding), or 100 μM of CRF (for non-specific binding), was added to a […]. Finally, 50 μL of the membrane fraction was added thereto and the reaction was started (final concentration of ^125I-CRF was 0.25 nM). The tube was incubated at room temperature for 2 hours. After the reaction, the tube was centrifuged at 20,000 g in order to collect the membrane fraction. The supernatant was discarded, and the pellet was washed with an ice-colded PBS/0.01% TritonX-100. A membrane binding count was measured using a y counter. The specific binding count was obtained by subtracting the non-specific count from the measured count.

In data set [3] the target is T1, human CRF receptor I. The data set is described as follows: Receptor antagonistic activity (cyclic AMP assay). Particulars: accumulated cyclic AMP, human/rat CRF stimulation, cells expressing human CRF receptor I, 37° C. 15 minutes. The class given is cell-based. The protocol:
The forced expression cell strain of the human CRF receptor I was cultured at 37° C. under 5% carbon dioxide and 95% air by using a Ham's F-12 medium (F-12 nutrient mixture) containing 10% bovine fetal serum and 1% antibiotic substance-antifungal agent. On the previous day before the cyclic AMP was measured, the cells were inoculated into a 96-well plate in an amount of 1×10^4 cell/well. On the measurement day, the cells were washed twice with a Ham's F-12 medium, whereby a solution of Ham's F-12 medium/1 mM 3-isobutyl-1-methylxanthine (assay medium) (178 μL) was added to each well. After the incubation at 37° C. for 15 minutes, the solutions (2 μL) of evaluation compound in various concentrations were added thereto, or DMSO (2 μL) was added to a CRF group and a blank group. An assay medium (20 μL) containing 10 nM human/rat CRF was added to wells of an evaluation compound group and the CRF group. An assay medium (20 μL) containing 0.00001% acetic acid was added to the blank group. Each group was further incubated at 37° C. for 15 minutes. The supernatant was removed and ice-colded to stop the reaction. Note that the reactions of 2 wells were the same in all reactions. The measurement for accumulated cyclic AMP amount in cells was carried out by using a cyclic AMP Biotrak enzyme immunoassay system (manufactured by GE Healthcare). The accumulated cyclic AMP amounts were calculated by subtracting mean values of corresponding 2 wells in the blank group from that of 2 wells. The IC50 values were calculated with non-linear regression analysis by defining logarithm concentration of the evaluation compound as independent variable and an accumulated cyclic AMP amount as dependent variable.

In the next data set the test system is Male Wistar rats. The data set is described as follows: Water aversive stress model in rats. The class given is in vivo, rat. Particulars: 3 mg/kg, oral once 30 minutes before stress, 60 minutes after loading the water aversive stress. As for the experimental part: Male Wistar rats of 7 weeks of age were used in the test. A platform of 8.5 cm in diameter and 11 cm in height was arranged in the center of a plastic container (30 cm in length, 45 cm in width, 37 cm in height), and water was filled therein to a depth of about 10 cm. Each rat was put on the platform, and the number of evacuations was counted 5, 30 and 60 minutes thereafter. To the vehicle group, 20% Wellsolve (registered trademark) was orally administered, and an evaluation compound having varied concentrations was orally administered to the evaluation compound group, once 30 minutes before loading the water aversive stress. The dose was set to be 5 ml/kg for both cases.

Turning to `CCC(CC)c1cc(C)n2nc(-c3ccc(OC)cc3C)n(C)c(=O)c12` [Example 8(1), 5-(1-ethylpropyl)-2-(4-methoxy-2-methylphenyl)-3,7-dimethylpyrrolo[2,1-f][1,2,4]triazin-4(3H)-one], the residual ratio in data set [1] came to 90%. For the same compound, the “residual ratio after 20 days” value in the data set “Light stability test” was 93%.
Consider `CCn1c(-c2ccc(SC)cc2Cl)nn2c(C)cc(C(C)C)c2c1=O` [Example 14(2), 2-[2-chloro-4-(methylthio)phenyl]-3-ethyl-5-isopropyl-7-methylpyrrolo[2,1-f][1,2,4]triazin-4(3H)-one], for which the results for the IC50 on human CRF receptor I [2] and against human CRF receptor I [3] were 4.5 nM and 2.1 nM, respectively. In addition, the “increase of the number of evacuations for the vehicle group” value with Male Wistar rats is given as “significantly inhibited”.
